What was measured:
[1] = Lipophilicity, log D of the compound at pH 7.4 by chromatographic method; format: physicochemical; details: buffer
[2] = Intrinsic clearance in human liver microsomes; format: ADME, Microsome
[3] = Drug level in naive rat kidney at 5 mg/kg, iv administered as bolus dose followed by 5 ml/kg/hr iv infusion for 4 hrs; format: ADME, organism-based; details: read-out: Drug uptake
[4] = Unbound brain-to-plasma concentration ratio in naive rat at 5 mg/kg, iv administered as bolus dose followed by 5 ml/kg/hr iv infusion for 4 hrs; format: ADME, organism-based; details: read-out: K(p,uu,brain)
[5] = Brain to blood partition coefficient, Kp of the compound in naive rat at 5 mg/kg, iv administered as bolus dose followed by 5 ml/kg/hr iv infusion for 4 hrs; format: ADME, organism-based
[6] = Drug level in naive rat blood at 5 mg/kg, iv administered as bolus dose followed by 5 ml/kg/hr iv infusion for 4 hrs; format: ADME, organism-based; details: read-out: Drug uptake
[7] = Drug level in naive rat brain at 5 mg/kg, iv administered as bolus dose followed by 5 ml/kg/hr iv infusion for 4 hrs; format: ADME, organism-based; details: read-out: Drug uptake
[8] = Drug level in naive rat spleen at 5 mg/kg, iv administered as bolus dose followed by 5 ml/kg/hr iv infusion for 4 hrs; format: ADME, organism-based; details: read-out: Drug uptake

A chromatographic logD [1] of 2.2 was found for `CN1CC2(CCN(c3ccc(OCc4ccccc4)c(C(=O)Nc4ccnnc4)c3)CC2)C1` in this work.

A chromatographic logD [1] of 6.3 was found for `O=C(Nc1cccnc1)c1cc(C(F)(F)F)ccc1OCc1ccc(F)cc1` in this work.

A chromatographic logD [1] of 4.5 was found for `C[C@@H]1COCCN1c1ccc(OCc2ccccc2)c(C(=O)Nc2ccnnc2)c1` in this work.

A CLH [2] of 1.3 mL/min/g and a chromatographic logD [1] of 3.8 were found for `COCCN1CCN(c2ccc(OCc3ccccc3)c(C(=O)Nc3ccnnc3)c2)CC1` in this work.

A chromatographic logD [1] of 6.3 was found for `O=C(Nc1ccnnc1)c1cc(N2CCCCC2)ccc1OCc1ccccc1` in this work.

A chromatographic logD [1] of 8.2 was found for `O=C(Nc1cccc(F)c1)c1cc(C(F)(F)F)ccc1OCc1ccc(F)cc1` in this work.

A CLH [2] of under 0.78 mL/min/g and a chromatographic logD [1] of 2.9 were found for `COCCN1CCC(c2ccc(OCc3ccccc3)c(C(=O)Nc3ccnnc3)c2)CC1` in this work.

A CLH [2] of 5.5 mL/min/g and a chromatographic logD [1] of 5.1 were found for `O=C(Nc1ccnnc1)c1cc(N2CCC(F)CC2)ccc1OCc1ccccc1` in this work.

A CLH [2] of 11.8 mL/min/g and a chromatographic logD [1] of 4.4 were found for `O=C(Nc1ccnnc1)c1cc(N2CC(F)C2)ccc1OCc1ccccc1` in this work.

A chromatographic logD [1] of 8.8 was found for `O=C(Nc1cccc(Cl)c1)c1cc(C(F)(F)F)ccc1OCc1ccccc1` in this work.

A CLH [2] of 9.8 mL/min/g and a chromatographic logD [1] of 6.1 were found for `O=C(Nc1ccnnc1)c1cc(N2CCCC2)ccc1OCc1ccccc1` in this work.

A CLH [2] of 2.2 mL/min/g and a chromatographic logD [1] of 5.4 were found for `C[C@@H]1CN(c2ccc(OCc3ccccc3)c(C(=O)Nc3ccnnc3)c2)C[C@H](C)O1` in this work.

A CLH [2] of 9.5 mL/min/g and a chromatographic logD [1] of 5.1 were found for `O=C(Nc1ccnnc1)c1cc(N2CC(F)(F)C2)ccc1OCc1ccccc1` in this work.

A CLH [2] of 5.5 mL/min/g and a chromatographic logD [1] of 4.5 were found for `N#CC1CCN(c2ccc(OCc3ccccc3)c(C(=O)Nc3ccnnc3)c2)CC1` in this work.

A chromatographic logD [1] of 6.3 was found for `O=C(Nc1cccnc1)c1cc(C(F)(F)F)ccc1OCc1ccccc1` in this work.

A chromatographic logD [1] of 2.3 was found for `CN1CCC(c2ccc(OCc3ccccc3)c(C(=O)Nc3ccnnc3)c2)CC1` in this work.

A chromatographic logD [1] of 2 was found for `CN1CC2(C1)CN(c1ccc(OCc3ccccc3)c(C(=O)Nc3ccnnc3)c1)C2` in this work.

A chromatographic logD [1] of 8.7 was found for `O=C(Nc1cccc(Cl)c1)c1cc(C(F)(F)F)ccc1OCc1ccc(F)cc1` in this work.

A concentration at 4 h [3] of 3970 ng/g, a Kp uu at 4 h [4] of 0.51 and a CLH [2] of 2.1 mL/min/g were found for `O=C(Nc1ccnnc1)c1cc(N2CCOCC2)ccc1OCc1ccccc1` in this work. It also gave a Kp at 4 h [5] of 1.44, a concentration at 4 h [6] of 1130 ng/mL and a chromatographic logD [1] of 4.1. The concentration at 4 h [7] was 1630 ng/g and the concentration at 4 h [8] was 1680 ng/g.

A CLH [2] of 0.6 mL/min/g and a chromatographic logD [1] of 3.2 were found for `O=C(Nc1ccnnc1)c1cc(N2CCC(O)CC2)ccc1OCc1ccccc1` in this work.

A CLH [2] of 0.4 mL/min/g and a chromatographic logD [1] of 1.9 were found for `O=C(Nc1ccnnc1)c1cc(N2CCNCC2)ccc1OCc1ccccc1` in this work.

A CLH [2] of 1 mL/min/g and a chromatographic logD [1] of 3.5 were found for `O=C(Nc1ccnnc1)c1cc(N2CCC(CO)CC2)ccc1OCc1ccccc1` in this work.

A CLH [2] of 4.3 mL/min/g and a chromatographic logD [1] of 4.5 were found for `O=C(Nc1ccnnc1)c1cc(N2C[C@H]3COC[C@H]3C2)ccc1OCc1ccccc1` in this work.

A CLH [2] of 1.6 mL/min/g and a chromatographic logD [1] of 3 were found for `CN1CCN(c2ccc(OCc3ccccc3)c(C(=O)Nc3ccnnc3)c2)CC1` in this work.

A chromatographic logD [1] of 5.4 was found for `O=C(Nc1ccnnc1)c1cc(C(F)(F)F)ccc1OCc1ccccc1` in this work.

A chromatographic logD [1] of 7.5 was found for `N#Cc1cccc(NC(=O)c2cc(C(F)(F)F)ccc2OCc2ccc(F)cc2)c1` in this work.
